Test results: patent US20250109135A1, “NOVEL ISOINDOLINONE DERIVATIVE COMPOUNDS AS CASPASE INHIBITORS” (INNOVO THERAPEUTICS INC., priority 2022, published 2025)
Read-outs that look alike come from different tables or passages of the source. Each block holds one compound with its values, some of them ahead of it.

Key:
[1] = tested on: Jurkat cells; assay: Apoptosis inhibition activity in human T-lymphocyte cells Jurkat (anti-FAS antibody, intracellular ATP); assay type: cell-based; settings: compound 50 nM, 1 μg/ml anti-FAS antibody 24 h, ATP luminescence
Protocol: To evaluate the effect of the compound of the present invention on apoptosis, Jurkat (ATCC) cells were treated with anti-FAS antibody CH-11 (Merck) to induce apoptosis via the Fas (CD95) receptor, which was assessed by the amount of intracellular ATP.
Jurkat cells were cultured in RPMI 1640 growth medium comprising 10% FBS and antibiotics (100 U/ml Penicillin, 0.1 mg/ml Streptomycin) under 37° C., 5% CO2 conditions. Cultured cells were seeded in growth medium to a concentration of 8×10^4 cells/well in 96-well plates (SPL), pretreated with compound at a concentration of 50 nM for 1 hour, and then treated with 1 μg/ml anti-FAS antibody for 24 hours in an incubator. After 24 h, an ATP lite Luminescence assay kit (PerkinElmer) was used to measure ATP and luminescence was measured at 580 nm using a CLARIOstar Plus spectrometer. If the inhibitory activity is 30% or more, it is denoted as a′, if it is 20% or more but less than 30%, it is denoted as b′, if it is 10% or more but less than 20%, it is denoted as c′, and if it is less than 10%, it is denoted as d′.

[2] = target: T1, recombinant human Caspase-1 (Homo sapiens, UniProt P29466); assay: Caspase-1 inhibitory activity, fluorescent substrate Ac-YVAD-AFC; assay type: biochemical
T1 construct: purchased Enzo life science
T1 sequence (P29466 120-297 limits assumed): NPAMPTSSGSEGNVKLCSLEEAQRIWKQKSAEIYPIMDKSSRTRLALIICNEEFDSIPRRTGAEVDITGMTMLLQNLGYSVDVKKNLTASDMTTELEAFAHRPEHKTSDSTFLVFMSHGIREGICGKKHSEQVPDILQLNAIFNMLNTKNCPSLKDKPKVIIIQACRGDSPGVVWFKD
T1 sequence (P29466 317-404 limits assumed): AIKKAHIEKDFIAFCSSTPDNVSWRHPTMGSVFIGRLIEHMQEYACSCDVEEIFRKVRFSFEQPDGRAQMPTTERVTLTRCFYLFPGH
Outline: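 Inactivation kinetics with 1 unit enzyme and 50 μM Ac-YVAD-AFC in 50 mM HEPES pH 8.0, 50 mM KCl, 200 mM NaCl, 10 mM DTT, 0.1% CHAPS, at various compound concentrations. Rate followed over time at Ex/Em 400/505 nm. kobs/[I] binned: A ≥20, B 10–<20, C 1–<10, D <1.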

[3] = tested on: Secreted IL-1β in THP-1 cells; assay: Interleukin-1β inhibitory activity in human monocytic cells THP-1 (ELISA); assay type: cell-based; settings: compound 100 nM, PMA-differentiated THP-1, LPS 10 μg/ml then 5 mM ATP, 24 h
Outline: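 THP-1 cells were differentiated with 1 μM PMA for 24 h, primed with 10 μg/ml LPS in serum-free medium for 24 h, then given compound at 100 nM for 1 h before 5 mM ATP for 24 h. Secreted IL-1β was measured by ELISA, and inhibition was binned a ≥50%, b 30–<50%, c 10–<30%, d <10%.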

[4] = pH 8, read-out: kobs/[I] Caspase-1

SMILES: CCC(C(=O)NC(CC(=O)O)C(=O)CF)N1Cc2ccc(-c3cnc4ccccc4c3)cc2C1=O (stereo not drawn) [Compound 37, 5-fluoro-4-oxo-3-(2-(1-oxo-6-(quinolin-3-yl)isoindolin-2-yl)butanamido)pentanoic acid]
inhibition at 0.05 µM [1]: < 10%
kinact/KI [2, 4]: 0.0167 to 0.167 M⁻¹ s⁻¹
inhibition at 0.1 µM [3]: 10 to 30%

SMILES: O=C(O)CC(NC(=O)CN1Cc2ccc(-c3ccc4[nH]c(=O)[nH]c4c3)cc2C1=O)C(=O)CF (stereo not drawn) [Compound 38, 5-fluoro-4-oxo-3-(2-(1-oxo-6-(2-oxo-2,3-dihydro-1H-benzo[d]imidazol-5-yl)isoindolin-2-yl)acetamido)pentanoic acid]
inhibition at 0.05 µM [1]: < 10%
kinact/KI [2, 4]: < 0.0167 M⁻¹ s⁻¹
inhibition at 0.1 µM [3]: < 10%

kinact/KI ([2]; pH 8, 1 unit recombinant human Caspase-1, 50 μM Ac-YVAD-AFC, read-out: kobs/[I] Caspase-1): 0.0167 to 0.167 M⁻¹ s⁻¹
SMILES: CCC(C(=O)NC(CC(=O)O)C(=O)CF)N1Cc2ccc(N3CCn4cc(C(F)(F)F)nc4C3)cc2C1=O (stereo not drawn) [Compound 10, 5-fluoro-4-oxo-3-(2-(1-oxo-6-(2-(trifluoromethyl)-5,6-dihydroimidazo[1,2-a]pyrazin-7(8H)-yl)isoindolin-2-yl)butanamido)pentanoic acid]
inhibition at 0.05 µM [1]: 10 to 20%
inhibition at 0.1 µM [3]: 30 to 50%
